Test results published in patent US20220106301A1, “ACETAMIDO-PHENYLBENZAMIDE DERIVATIVES AND METHODS OF USING THE SAME” (Athenex, Inc., priority 2020, published 2022).

Each compound was assayed against CYP3A4 (Homo sapiens, UniProt P08684) (assay: Determination of CYP3A4 inhibitory activity (human liver microsome, Luciferin-IPA)). Conditions: CYP3A4 IC50 (nM), 37° C. 11 minutes.
Method in brief: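 Final compound concentrations 37, 111, 333, 1000 and 3000 nM; reaction at 37° C for 11 min, then luciferin detection reagent 5 min at room temperature with luminescence read-out. IC50 from nonlinear regression of dose-response.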

Chain of CYP3A4 (P08684 whole entry): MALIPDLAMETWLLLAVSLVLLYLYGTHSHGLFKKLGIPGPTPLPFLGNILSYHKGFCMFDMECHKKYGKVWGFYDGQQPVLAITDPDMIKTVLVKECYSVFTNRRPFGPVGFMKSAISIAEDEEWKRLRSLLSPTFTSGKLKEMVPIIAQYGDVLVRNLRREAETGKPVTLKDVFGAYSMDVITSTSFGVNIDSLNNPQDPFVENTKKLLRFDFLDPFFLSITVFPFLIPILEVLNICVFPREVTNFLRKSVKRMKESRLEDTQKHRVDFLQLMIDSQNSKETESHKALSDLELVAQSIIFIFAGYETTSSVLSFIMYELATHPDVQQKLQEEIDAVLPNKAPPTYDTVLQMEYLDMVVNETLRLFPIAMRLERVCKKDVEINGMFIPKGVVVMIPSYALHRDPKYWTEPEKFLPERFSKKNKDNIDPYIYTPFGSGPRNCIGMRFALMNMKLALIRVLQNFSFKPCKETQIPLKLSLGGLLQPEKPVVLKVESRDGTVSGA

Compound | IC50 [nM]
COc1cc(NC(=O)c2cc(=O)c3ccccc3o2)c(C(=O)Nc2ccc(CCN(C)Cc3ccc(-c4cncs4)cc3)cc2)cc1OC [Compound 118] | 250 to 500
CCn1ncc2cc(CN(C)CCc3ccc(NC(=O)c4cc(OC)c(OC)cc4NC(=O)c4cc(=O)c5ccccc5o4)cc3)ccc21 [Compound 191] | > 1000
COc1cc(NC(=O)c2cnc3ccccc3c2)c(C(=O)Nc2ccc(CCN(Cc3cccc(-n4ccnc4)c3)Cc3ccc4c(cnn4C)c3)cc2)cc1OC [Compound 146] | 500 to 1000
COc1cncc(CN(CCc2ccc(NC(=O)c3ccc(C(=O)OCCN4CCN(C)CC4)cc3NC(=O)c3cc(=O)c4ccccc4o3)cc2)Cc2ccc3c(cnn3C)c2)c1 [Compound 272] | 250 to 500
CCN(CCc1ccc(NC(=O)c2cc(OC)c(OC)cc2NC(=O)c2cc(=O)c3ccccc3o2)cc1)Cc1ccc2cn[nH]c2c1 [Compound 185] | > 1000
COc1cc(NC(=O)c2cc(=O)c3ccccc3o2)c(C(=O)Nc2ccc(CCN(Cc3cncc(OCC(C)C)c3)Cc3ccc4c(cnn4C)c3)cc2)cc1OC [Compound 239] | > 1000
COc1cc(NC(=O)c2cc(=O)c3cc(C)ccc3o2)c(C(=O)Nc2ccc(CCN(Cc3cncc(C)c3)Cc3ccc4c(cnn4C)c3)cc2)cc1OC [Compound 77] | 250 to 500
COc1cc(NC(=O)c2cc(=O)c3ccccc3o2)c(C(=O)Nc2ccc(CCN(Cc3ccncc3)Cc3ccc4cnn(C)c4c3)cc2)cc1OC [Compound 182] | < 100
COc1cc(NC(=O)C2CC(=O)c3ccccc3O2)c(C(=O)Nc2ccc(CCN(C)Cc3ccc(-c4ccncc4)cc3)cc2)cc1OC (centres unmarked) [Compound 89] | > 1000
COc1cc(NC(=O)c2cc(=O)c3cc(C)cc(C)c3o2)c(C(=O)Nc2ccc(CCN(Cc3cccc(-n4ccnc4)c3)Cc3ccc4c(cnn4C)c3)cc2)cc1OC [Compound 197] | > 1000
COc1cc(NC(=O)c2cc(=O)c3ccccc3o2)c(C(=O)Nc2ccc(CCN(Cc3ccncc3)Cc3ccc4c(cnn4C)c3)cc2)cc1OC [Compound 33] | < 100
COc1cnccc1CN(CCc1ccc(NC(=O)c2cc(OC)c(OC)cc2NC(=O)c2cc(=O)c3ccccc3o2)cc1)Cc1ccc2c(cnn2C)c1 [Compound 49] | 250 to 500
COc1cc(NC(=O)c2cc(=O)c3ccccc3o2)c(C(=O)Nc2ccc(CCN(Cc3cccc(-n4ccnc4)c3)CC(C)C)cc2)cc1OC [Compound 99] | 250 to 500
COc1cc(NC(=O)c2cc(=O)c3cc(C)cc(C)c3o2)c(C(=O)Nc2ccc(CCN(Cc3cccnc3)Cc3ccc4c(cnn4C)c3)cc2)cc1OC [Compound 39] | 250 to 500
CCN(CCc1ccc(NC(=O)c2cc(OC)c(OC)cc2NC(=O)c2cc(=O)c3ccccc3o2)cc1)Cc1ccc2c(c1)CCO2 [Compound 162] | > 1000
COc1cc(NC(=O)c2cc(=O)c(O)co2)c(C(=O)Nc2ccc(CCN(C)Cc3ccc(-n4ccnc4)cc3)cc2)cc1OC [Compound 128] | 500 to 1000
COC(=O)c1ccc(CN(CCc2ccc(NC(=O)c3cc(OC)c(OC)cc3NC(=O)c3cc(=O)c4ccccc4o3)cc2)Cc2cccc(-n3ccnc3)c2)cc1 [Compound 218] | 100 to 250
COC(=O)c1ccc(C(=O)Nc2ccc(CCN(C)Cc3ccc4c(cnn4C)c3)cc2)c(NC(=O)c2cnc3ccccc3c2)c1 [Compound 281] | > 1000
CCOc1cncc(CN(CCc2ccc(NC(=O)c3cc(OC)c(OC)cc3NC(=O)c3cnc4ccccc4n3)cc2)Cc2ccc3c(cnn3C)c2)c1 [Compound 74] | 250 to 500
COc1cc(NC(=O)c2cc(=O)c3ccccc3o2)c(C(=O)Nc2ccc(CCN(Cc3ccc4c(cnn4C)c3)Cc3ccc4c(cnn4C)c3)cc2)cc1OC [Compound 137] | > 1000
CCOc1cncc(CN(CCc2ccc(NC(=O)c3cc(OC)c(OC)cc3NC(=O)c3cc(=O)c4cc(C)ccc4o3)cc2)Cc2ccc3c(cnn3C)c2)c1 [Compound 73] | 250 to 500
COc1cc(NC(=O)c2cc(=O)c3ccccc3o2)c(C(=O)Nc2ccc(CCN(C)Cc3ccc4c(c3)CNN4C)cc2)cc1OC [Compound 12] | > 1000
CCCN(CCc1ccc(NC(=O)c2cc(OC)c(OC)cc2NC(=O)c2cc(=O)c3ccccc3o2)cc1)Cc1cccc(-n2ccnc2)c1 [Compound 90] | 250 to 500
